# Reference: patent US20080139613A1, “Chemical Compound” (AstraZeneca AB, priority 2006, published 2008)
# Tests used:
# CCR5 = molecular target: T1, CCR5 (Homo sapiens, UniProt P51681); experiment: Displacement of radio-labelled CCR5 antagonist from Allo-T cell membranes; assay type: binding; details: membranes of human allo-reactive T cells; 2 nM [3H] CCR5 antagonist; 2 hours at room temperature
# T1 construct: After 21 to 34 days culture, the membranes were prepared from the cells; endogenous in cells; host or cells: Allo-T cells (allo-reactive T cell line from human PBMCs), membrane preparation
# Description: The ability of the compound of the present invention to inhibit the binding of MIP-1β (CCL-4) was measured:
# An allo-reactive T cell line was generated by exposure of human peripheral blood mononuclear cells (PBMCs) to L-DR4/B7 fibroblasts (immobilised with glutaraldehyde fixation and irradiation) and subsequent expansion with anti-CD3 and IL-2 for 14 days. The resultant Allo-T cells were frozen. When required, the cells were grown and re-challenged with irradiated HLA-DR4+ve PBMCs and expanded with anti-CD3 and IL-2. After 21 to 34 days culture, the membranes were prepared from the cells. These membranes were incubated in 96-well plates with 2 nM of the radio-labelled CCR5 antagonist [^3H]1-{(3R)-3-(3,5-difluorophenyl)-3-[4-(methylsulfonyl)phenyl]propyl}-4-(2-{[4-(methylsulfonyl)phenyl]sulfonyl}ethyl)piperidine and various concentrations of the compound of the invention for 2 hours at room temperature. The plates were then harvested onto GF/B filter plates (which had been pre-soaked soaked in 0.3% PEI containing 0.2% BSA for 10 min at 4° C.) using a Packard Unifilter harvester using 10 wash steps. The amount of [^3H]1-{(3R)-3-(3,5-difluorophenyl)-3-[4-(methylsulfonyl)phenyl]propyl}-4-(2-{[4-(methylsulfonyl)phenyl]sulfonyl}ethyl)piperidine retained on the filter plates was determined by scintillation counting. […]
# [1] = Rat pharmacokinetics after intravenous and oral dosing; assay type: in vivo; details: male Han Wistar rat; for clearance / half-life / Vd: Alderley Park Han Wistar, whole blood, intravenous 2 mg/kg; for clearance: blood clearance; for half-life: read-out: T½ (converted); for Vd: volume of distribution, read-out: Vdss; for F: bioavailability, oral 2 mg/kg vs intravenous 2 mg/kg
# Description: The rat pharmacokinetic (PK) parameters blood clearance (CL), volume of distribution (Vdss) and half life (t1/2) are calculated by determining the concentration (exposure) of test compound in whole blood samples taken from rats at various, defined time points subsequent to the intra-venous dosing (administration) of formulated test compound. The rat PK parameter bioavailability (F) is calculated by determining the concentration (exposure) of test compound in whole blood samples taken from rats at various, defined time-points subsequent to the oral dosing (administration) of formulated test compound and then by comparison of the ratio of the dose normalized total oral exposure (AUCpo) with the dose normalized total intra-venous exposure (AUCiv). Fraction absorbed (Fabs) is a secondary PK parameter that is often calculated from a knowledge of the clearance (CL) and bioavailability (F) of a test compound. The equation for determination of Fabs is as follows: […]
# where Qh is the species liver blood flow (ml/min/kg).
# For intravenous dosing, test compounds are dissolved in dimethyl acetamide (DMA) and then diluted with water such that the final test compound concentration is 1 mg/ml and the composition of the formulation is 40% DMA: 60% water. Male rats (n=2, Alderley Park Han Wistar strain) are then administered, via the tail vein, the test compound formulation at a dose volume of 2 ml/kg bodyweight such that each rat receives a total test compound dose of 2 mg/kg bodyweight. Blood sampling post IV dosing is via needle stick puncture of the tail vein and is serial in design: two rats have blood samples taken at 5, 20, 40, 90, 180, 360, 720 and 1440 (cardiac puncture) minutes after dosing.
# For oral dosing, test compounds are dissolved in dimethyl sulphoxide (DMSO and then diluted with hydroxymethyl cellulose (HPMC) 0.5% w/v-Tween 80 (0.1% v/v) such that the final test compound concentration is 1 mg/ml and the composition of the formulation is 5% DMSO:95% HPMC/Tween. Male rats (n=2, Alderley Park Han Wistar strain) are then administered, via oral gavage, the test compound formulation at a dose volume of 2 ml/kg bodyweight such that each rat receives a total test compound dose of 2 mg/kg bodyweight. Blood sampling post oral dosing is via needle stick puncture of the tail vein and is serial in design: two rats have blood samples taken at 15, 30, 60, 120, 180, 360, 720 and 1440 (cardiac puncture) minutes after dosing. All blood samples are collected into lithium heparin tubes to prevent clotting. Aliqouts of blood are then diluted 1:1 with water and then frozen at −20° C. prior to being assayed to determine test compound concentration.
# Calibration standard samples are prepared by addition of known amounts of test compound to blank diluted (1:1) blood samples. Calibration standards and unknown samples are then diluted and mixed with 3 parts ice-cold acetonitrile (containing suitable internal standard) to precipitate proteinaceous material. Following centrifugation, sample and calibration standard supernatants are analysed for test compound concentration by HPLC with MS/MS (triple quad mass spectrometry) detection. Quantification of test compound concentrations in the blood samples taken from the rats is achieved by reference to a standard curve constructed from the calibration standard samples.
# Blood concentration—time point data and other information such as IV and PO dose is then entered into and analysed by a commercially available non-linear regression software program (WinNonLin version 4.1, Pharsight Corporation) to determine the rat PK parameters of interest (as described above).
# T1 sequence (P51681 whole entry): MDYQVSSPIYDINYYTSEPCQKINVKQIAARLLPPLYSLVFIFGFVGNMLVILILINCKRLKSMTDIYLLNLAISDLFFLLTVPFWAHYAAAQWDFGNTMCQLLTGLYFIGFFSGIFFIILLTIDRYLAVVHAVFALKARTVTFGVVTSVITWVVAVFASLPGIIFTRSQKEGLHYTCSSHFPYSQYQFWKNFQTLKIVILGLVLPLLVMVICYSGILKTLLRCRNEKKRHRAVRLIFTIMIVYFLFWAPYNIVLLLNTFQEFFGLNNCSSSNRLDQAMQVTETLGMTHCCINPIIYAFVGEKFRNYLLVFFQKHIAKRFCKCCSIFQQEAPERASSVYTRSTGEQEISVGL
Compound,IC50 (CCR5) [µM],clearance [1] [mL/min/kg],half-life [1] [h],Vd [1] [L/kg],F [1] [%]
"CCc1nnc(C(C)C)n1C1CCN([C@H](C)C[C@@H](c2cc(F)cc(F)c2)C2CCN(S(C)(=O)=O)CC2)CC1 (single isomer, unassigned)",0.0065,18,4,4.1,28
"Cc1nnc(C(C)C)n1C1CCN(C(C)C[C@@H](c2cc(F)cc(F)c2)C2CCN(S(C)(=O)=O)CC2)CC1 (single isomer, unassigned) [Comparator Compound A]",0.032,37,2.7,4.9,1
